Test system: 922993-354-T-J3-PDC complex spheroid viability
Experiment: Anticancer human tumor 922993-354-T-J3-PDC patient-derived endometrial carcinoma cell line growth inhibition [POLQ]
Settings: for IC50: curve of first compound; for viability, T/C: stronger effect = lower value
Experimental: Multicellular complex tumor spheroid response to Polymerase (POL) inhibitors (novobiocin, ART-558, RP6685) in combination with a variety of drugs and investigational agents in selected tumor cell lines
The POL inhibitors (novobiocin, ART-558, and RP6685) were evaluated both individually and in combination with standard of care and investigational anticancer small molecules within a complex spheroid model of solid tumors. . Complex spheroids include a stromal component modeled by human endothelial cells (HUVEC) and fibroblasts modeled by human mesenchymal stem cells (MSCs). The concentration ranges selected for each drug and investigational agent were based upon clinically achievable concentrations if the clinical Cmax of the agent was known.
Compounds. The drugs and investigational agents: novobiocin (NSC847541), ART-558 (NSC835418), RP-6685 (NSC848927), peposertib (NSC802822), ceralasertib (NSC780249), elimusertib (NSC800525), camonsertib (NSC841442), AZD-1390 (NSC803789), olaparib (NSC753686), talazoparib (NSC767125), rucaparib (NSC756644), sotorasib (NSC818433), MRTX-1133 (NSC836407), SN-38 (NSC673596), topotecan (NSC609699), epotoside (NSC141540), doxorubicin (NSC123127), gemcitabine (NSC613327), 5-fluorouracil (NSC19893), paclitaxel (NSC125973), vemurafenib (NSC761431), MSA-2 (NSC828583), SN-011 (NSC837082), adavosertib (NSC754352), prexasertib (NSC758257), carboplatin (NSC241240) and oxaliplatin (NSC266046), were obtained from the National Cancer Institute (NCI) Developmental Therapeutics Program Chemical Repository (21). The FDA-approved anticancer drug set is available from the Developmental Therapeutics Program at https://dtp.cancer.gov/organization/dscb/obtaining/. […] The stock solutions were prepared in dimethyl sulfoxide (DMSO, Sigma-Aldrich, St. Louis, MO, cat. D2650), except for the platinum compounds which were prepared in saline (Quality Biological, Gaithersburg, MD, cat. 114-055-101), at 800-fold the tested concentration and stored at -70 degrees C prior to their use. All drugs and investigational agents were tested over a range starting from a high concentration at or near the clinical Cmax and decreasing in half-log increments. If the clinical Cmax for an agent had not been determined, the highest concentration tested was 10 microM, except for SN-38, which was tested at a high concentration of 1 microM.
Cell Culture. All cells were maintained in an incubator at 37 degrees C and 5% CO2 with 95% humidity. The PDC lines were cultured according to standard operating procedures established by the NCI PDMR (https://pdmr.cancer.gov). Table 3 of the manuscript, lists the cell lines along with the number of the three cell types plated to form the mct-spheroids and media for tumor cell growth. After thawing, all PDC lines, except 997537-175-T-J1-PDC and 415267-285-R-J2-PDC, were cultured in Matrigel-coated flasks prepared with a working solution of 1X Ham's F-12 nutrient mix, without supplementation (Thermo Fisher Scientific, cat. 11765054), 100 U/mL penicillin-streptomycin (Thermo Fisher Scientific, cat. 15140122), and 2.5% Matrigel (Corning Inc., Corning, NY, cat. 354248) for the first three passages. The two PDC lines 997537-175-T-J1-PDC and 415267-285-R-J2-PDC were cultured on uncoated flasks. The 857933-349-R-J2-PDC line was cultured in 6C/Colon 1B media containing advanced DMEM/F-12 (Thermo Fisher Scientific, cat. 12634028), 10 mM HEPES (Thermo Fisher Scientific, cat. 15630080), 1X GlutaMAX supplement (Thermo Fisher Scientific, cat. 35050061), 0.1 mg/mL primocin (InvivoGen, San Diego, CA, cat. ant-pm-2), 10% defined fetal bovine serum, heat inactivated (HyClone Laboratories Inc., Logan, UT, cat. SH30070.03HI), 50% L-WRN conditioned media (ATCC, cat. CRL-3276), 1.25 mM N-Acetyl-L-cysteine (Sigma-Aldrich, cat. A9165), 10 mM nicotinamide (Sigma-Aldrich, cat. N0636), 1X B-27 supplement (Thermo Fisher Scientific, cat. 17504044), 1X N-2 supplement (Thermo Fisher Scientific, cat. […]

[1] = second compound 0.0316 µM, first compound 0.0316 µM
[2] = second compound 0.0316 µM, first compound 0.1 µM
[3] = second compound 0.1 µM, first compound 0.0316 µM
[4] = second compound 0.1 µM, first compound 0.1 µM
[5] = second compound 0.316 µM, first compound 0.0316 µM
[6] = second compound 0.316 µM, first compound 0.1 µM
[7] = second compound 1 µM, first compound 0.0316 µM
[8] = second compound 1 µM, first compound 0.1 µM
[9] = second compound 3.16 µM, first compound 0.0316 µM
[10] = second compound 3.16 µM, first compound 0.1 µM
[11] = second compound 10 µM, first compound 0.0316 µM
[12] = second compound 10 µM, first compound 0.1 µM
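Further: spheroids exposed to the agents for one week.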
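Wherever viability, T/C is given: 100% = DMSO vehicle control wells.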

`Cn1ncnc1[C@H]1c2n[nH]c(=O)c3cc(F)cc(c23)N[C@@H]1c1ccc(F)cc1` + Nc1ccc(C#CCN(C(=O)Cc2ncc(C(F)(F)F)cc2C(F)(F)F)c2ccc(F)cc2)nn1 was tested, and the IC50 (second compound 0.0316 µM) was > 0.1 µM, the IC50 (second compound 0.1 µM) was > 0.1 µM and the IC50 (second compound 0.316 µM) was > 0.1 µM. For the same molecule, the IC50 (second compound 1 µM) was > 0.1 µM, the IC50 (second compound 3.16 µM) was > 0.1 µM and the IC50 (second compound 10 µM) was > 0.1 µM. For the same molecule, the viability, T/C (second compound 0.0316 µM, first compound 0.000316 µM) was 97.9%, the viability, T/C (second compound 0.0316 µM, first compound 0.001 µM) was 102% and the viability, T/C (second compound 0.0316 µM, first compound 0.00316 µM) was 101%. It also gave a viability, T/C (second compound 0.0316 µM, first compound 0.01 µM) of 98.3%, a viability, T/C [1] of 101% and a viability, T/C [2] of 89.2%. The viability, T/C (second compound 0.1 µM, first compound 0.000316 µM) was 107%, the viability, T/C (second compound 0.1 µM, first compound 0.001 µM) was 102% and the viability, T/C (second compound 0.1 µM, first compound 0.00316 µM) was 102%. For the same molecule, the viability, T/C (second compound 0.1 µM, first compound 0.01 µM) was 98.1%, the viability, T/C [3] was 102% and the viability, T/C [4] was 86.5%. The viability, T/C (second compound 0.316 µM, first compound 0.000316 µM) was 104%, the viability, T/C (second compound 0.316 µM, first compound 0.001 µM) was 106% and the viability, T/C (second compound 0.316 µM, first compound 0.00316 µM) was 100%. For the same molecule, the viability, T/C (second compound 0.316 µM, first compound 0.01 µM) was 96.6%, the viability, T/C [5] was 96% and the viability, T/C [6] was 89.6%. For the same molecule, the viability, T/C (second compound 1 µM, first compound 0.000316 µM) was 105%, the viability, T/C (second compound 1 µM, first compound 0.001 µM) was 101% and the viability, T/C (second compound 1 µM, first compound 0.00316 µM) was 98.7%. The viability, T/C (second compound 1 µM, first compound 0.01 µM) was 98.1%, the viability, T/C [7] was 96.8% and the viability, T/C [8] was 86.2%. It also gave a viability, T/C (second compound 3.16 µM, first compound 0.000316 µM) of 102%, a viability, T/C (second compound 3.16 µM, first compound 0.001 µM) of 99% and a viability, T/C (second compound 3.16 µM, first compound 0.00316 µM) of 93%. It also gave a viability, T/C (second compound 3.16 µM, first compound 0.01 µM) of 95.4%, a viability, T/C [9] of 89.2% and a viability, T/C [10] of 82.6%. For the same molecule, the viability, T/C (second compound 10 µM, first compound 0.000316 µM) was 101%, the viability, T/C (second compound 10 µM, first compound 0.001 µM) was 94.9% and the viability, T/C (second compound 10 µM, first compound 0.00316 µM) was 94.8%. It also gave a viability, T/C (second compound 10 µM, first compound 0.01 µM) of 85.7%, a viability, T/C [11] of 71.9% and a viability, T/C [12] of 53.4%.

For `O=C(Nc1ccc(O)c(NS(=O)(=O)c2ccc(F)cc2)c1)c1ccc(-c2ccccc2)cc1` + Nc1ccc(C#CCN(C(=O)Cc2ncc(C(F)(F)F)cc2C(F)(F)F)c2ccc(F)cc2)nn1, the IC50 (second compound 0.0316 µM) was > 10 µM, the IC50 (second compound 0.1 µM) was > 10 µM and the IC50 (second compound 0.316 µM) was > 10 µM. For the same molecule, the IC50 (second compound 1 µM) was > 10 µM, the IC50 (second compound 3.16 µM) was > 10 µM and the IC50 (second compound 10 µM) was > 10 µM. It also gave a viability, T/C [1] of 99.8%, a viability, T/C [2] of 107% and a viability, T/C (second compound 0.0316 µM, first compound 0.316 µM) of 99.4%. For the same molecule, the viability, T/C (second compound 0.0316 µM, first compound 1 µM) was 102%, the viability, T/C (second compound 0.0316 µM, first compound 3.16 µM) was 105% and the viability, T/C (second compound 0.0316 µM, first compound 10 µM) was 96.2%. For the same molecule, the viability, T/C [3] was 101%, the viability, T/C [4] was 97.6% and the viability, T/C (second compound 0.1 µM, first compound 0.316 µM) was 99.4%. For the same molecule, the viability, T/C (second compound 0.1 µM, first compound 1 µM) was 97.6%, the viability, T/C (second compound 0.1 µM, first compound 3.16 µM) was 99.1% and the viability, T/C (second compound 0.1 µM, first compound 10 µM) was 102%. For the same molecule, the viability, T/C [5] was 100%, the viability, T/C [6] was 100% and the viability, T/C (second compound 0.316 µM, first compound 0.316 µM) was 99.1%. The viability, T/C (second compound 0.316 µM, first compound 1 µM) was 95.1%, the viability, T/C (second compound 0.316 µM, first compound 3.16 µM) was 103% and the viability, T/C (second compound 0.316 µM, first compound 10 µM) was 105%. It also gave a viability, T/C [7] of 102%, a viability, T/C [8] of 94.8% and a viability, T/C (second compound 1 µM, first compound 0.316 µM) of 104%. It also gave a viability, T/C (second compound 1 µM, first compound 1 µM) of 93%, a viability, T/C (second compound 1 µM, first compound 3.16 µM) of 105% and a viability, T/C (second compound 1 µM, first compound 10 µM) of 99%. For the same molecule, the viability, T/C [9] was 101%, the viability, T/C [10] was 97.7% and the viability, T/C (second compound 3.16 µM, first compound 0.316 µM) was 100%. It also gave a viability, T/C (second compound 3.16 µM, first compound 1 µM) of 97.4%, a viability, T/C (second compound 3.16 µM, first compound 3.16 µM) of 105% and a viability, T/C (second compound 3.16 µM, first compound 10 µM) of 103%. For the same molecule, the viability, T/C [11] was 97.6%, the viability, T/C [12] was 99.7% and the viability, T/C (second compound 10 µM, first compound 0.316 µM) was 95%. The viability, T/C (second compound 10 µM, first compound 1 µM) was 99.1%, the viability, T/C (second compound 10 µM, first compound 3.16 µM) was 103% and the viability, T/C (second compound 10 µM, first compound 10 µM) was 102%.

Source: PubChem BioAssay AID1963830 (Molecular Pharmacology Branch, DTP, NCI, 2024)
